Data taken from patent publication US20240390295A1, “METHODS FOR TREATING DEPRESSION” (JANSSEN PHARMACEUTICA NV, priority 2020, published 2024).
Values joined by “and” are separate entries in the source; they are usually repeats but may differ in a detail not shown here. Equal entries are not always repeated.

Tested on: adult patients (aged 18-64 years) with TRD
Experiment: Maximum time to onset of clinician-reported adverse events by AE week 1/week 4 occurrence (Tables 5-16; modal dose 56, modal dose 84, Total)
Format: in vivo, human
Details: for Blood Pressure (clinician): n >60 m / Blood Pressure (clinician): 31-60 m / Blood Pressure (clinician): 61-90 m / Blood Pressure (clinician): % >60 m / Blood Pressure (clinician): TOTAL / Dissociation (clinician), % >60 m / Dizziness, % >60 m / Sedation, % >60 m / Vertigo, % >60 m: Based on Week 4; for Sedation(clinician-reported), n (%) / Vertigo(clinician-reported), n (%) / Dissociation(clinician-reported), n (%) / Blood pressure increased (clinician-reported), n (%) / Dizziness(clinician-reported), n (%): listed as ESK
Protocol: Patients were monitored for >90 minutes after ESK administration at each treatment session, after which time they could leave the clinical site at the clinician's discretion. AEs were monitored and reported, and safety assessments, including clinical laboratory tests and physical examinations, were conducted throughout the study. Clinician-reported AEs were categorized as mild, moderate, or severe based on clinical judgement (Table 1).
Since flexible dosing (ESK 56 or 84 mg) was permitted in the studies and an individual patient's doses could change within dosing timeframes, patients were stratified by modal dose during the respective periods.
The time to onset of the adverse events experienced by patients in Example 2 was analyzed. Tables 5-11 include the summary of specific adverse events by their respective categorized maximum time to Onset (i) across sessions 3-8 during Induction Phase by AE week 1 occurrence (Table 5), (ii) during Optimization Phase by AE week 1 occurrence (Table 6), (iii) during Optimization Phase by AE week 4 occurrence (Table 7), (iv) during Month 3-6 of Maintenance Phase by AE week 1 occurrence (Table 8), (v) Month 3-6 of Maintenance Phase by AE week 4 occurrence (Table 9), (vi) Month 6-12 of Maintenance Phase by AE week 1 occurrence (Table 10), and (vii) during Month 6-12 of Maintenance Phase by AE week 4 (Table 11).
Tables 12-16 include the incidences of clinician-reported blood pressure (Table 12), clinician-reported dissociation (Table 13), dizziness (Table 14), sedation (Table 15), and vertigo (Table 16) spanning week 1 to month 12 using the data of Example 2.

[1] = Induction Phase sessions 3-8, AE week 1 None
[2] = Induction Phase sessions 3-8, AE week 1 Once
[3] = Induction Phase sessions 3-8, AE week 1 Twice
[4] = Month 3-6 Maintenance, AE week 1 None, onset missing
[5] = Month 3-6 Maintenance, AE week 4 None, onset 31-60 minutes
[6] = Month 3-6 Maintenance, AE week 4 None, onset missing
[7] = Month 6-12 Maintenance, AE week 4 Once
[8] = Month 6-12 Maintenance, AE week 4 Twice, onset 31-60 minutes
[9] = Optimization Phase, AE week 1 Once
[10] = Optimization Phase, AE week 4 None

Structure (SMILES): CN[C@]1(c2ccccc2Cl)CCCCC1=O [esketamine, (S)-2-(2-chlorophenyl)-2-(methylamino)cyclohexanone]
- Blood Pressure (clinician): n >60 m (None, Month 3-6): 1
- Blood Pressure (clinician): 31-60 m (None, Month 6-12): 6
- Blood Pressure (clinician): 61-90 m (None, Month 6-12): 1
- Blood Pressure (clinician): % >60 m (None, Month 6-12): 12.5%
- Blood Pressure (clinician): TOTAL (None, Month 6-12): 8
- Blood Pressure (clinician): n >60 m (None, Month 6-12): 1
- Blood Pressure (clinician): 31-60 m (Once, Month 2): 9
- Blood Pressure (clinician): % >60 m (Once, Month 2): 0%
- Blood Pressure (clinician): TOTAL (Once, Month 2): 9
- Blood Pressure (clinician): n >60 m (Once, Month 2): 0
- Blood Pressure (clinician): 31-60 m (Once, Month 3-6): 5
- Blood Pressure (clinician): % >60 m (Once, Month 3-6): 0%
- Blood Pressure (clinician): TOTAL (Once, Month 3-6): 5
- Blood Pressure (clinician): n >60 m (Once, Month 3-6): 0
- Blood Pressure (clinician): 31-60 m (Once, Month 6-12): 3
- Blood Pressure (clinician): % >60 m (Once, Month 6-12): 0%
- Blood Pressure (clinician): TOTAL (Once, Month 6-12): 3
- Blood Pressure (clinician): n >60 m (Once, Month 6-12): 0
- Blood Pressure (clinician): 31-60 m (Twice, Month 2): 9
- Blood Pressure (clinician): % >60 m (Twice, Month 2): 0%
- Blood Pressure (clinician): TOTAL (Twice, Month 2): 9
- Blood Pressure (clinician): n >60 m (Twice, Month 2): 0
- Blood Pressure (clinician): 31-60 m (Twice, Month 3-6): 2
- Blood Pressure (clinician): 61-90 m (Twice, Month 3-6): 1
- Blood Pressure (clinician): % >60 m (Twice, Month 3-6): 33.3%
- Blood Pressure (clinician): TOTAL (Twice, Month 3-6): 3
- Blood Pressure (clinician): n >60 m (Twice, Month 3-6): 1
- Blood Pressure (clinician): 31-60 m (Twice, Month 6-12): 2
- Blood Pressure (clinician): % >60 m (Twice, Month 6-12): 0%
- Blood Pressure (clinician): TOTAL (Twice, Month 6-12): 2
- Blood Pressure (clinician): n >60 m (Twice, Month 6-12): 0
- Dissociation (clinician), % >60 m (incidence None, Month 2): 0%
- Dizziness, % >60 m (incidence None, Month 2): 8.6%
- Sedation, % >60 m (incidence None, Month 2): 0%
- Vertigo, % >60 m (incidence None, Month 2): 12%
- Dissociation (clinician), % >60 m (incidence None, Month 3-6): 2.6%
- Dizziness, % >60 m (incidence None, Month 3-6): 2.1%
- Sedation, % >60 m (incidence None, Month 3-6): 14.3%
- Vertigo, % >60 m (incidence None, Month 3-6): 13.6%
- Dissociation (clinician), % >60 m (incidence None, Month 6-12): 4.2%
- Dizziness, % >60 m (incidence None, Month 6-12): 0%
- Sedation, % >60 m (incidence None, Month 6-12): 0%
- Vertigo, % >60 m (incidence None, Month 6-12): 0%
- Dissociation (clinician), % >60 m (incidence Once, Month 2): 4.8%
- Dizziness, % >60 m (incidence Once, Month 2): 3.7%
- Sedation, % >60 m (incidence Once, Month 2): 0%
- Vertigo, % >60 m (incidence Once, Month 2): 4.3%
- Dissociation (clinician), % >60 m (incidence Once, Month 3-6): 6.7%
- Dizziness, % >60 m (incidence Once, Month 3-6): 0%
- Sedation, % >60 m (incidence Once, Month 3-6): 0%
- Vertigo, % >60 m (incidence Once, Month 3-6): 0%
- Dissociation (clinician), % >60 m (incidence Once, Month 6-12): 0%
- Dizziness, % >60 m (incidence Once, Month 6-12): 0%
- Sedation, % >60 m (incidence Once, Month 6-12): 0%
- Vertigo, % >60 m (incidence Once, Month 6-12): 25%
- Dissociation (clinician), % >60 m (incidence Twice, Month 2): 0%
- Dizziness, % >60 m (incidence Twice, Month 2): 3.8%
- Sedation, % >60 m (incidence Twice, Month 2): 0%
- Vertigo, % >60 m (incidence Twice, Month 2): 0%
- Dissociation (clinician), % >60 m (incidence Twice, Month 3-6): 3%
- Dizziness, % >60 m (incidence Twice, Month 3-6): 3%
- Sedation, % >60 m (incidence Twice, Month 3-6): 0%
- Vertigo, % >60 m (incidence Twice, Month 3-6): 9.5%
- Dissociation (clinician), % >60 m (incidence Twice, Month 6-12): 0%
- Dizziness, % >60 m (incidence Twice, Month 6-12): 5.9%
- Sedation, % >60 m (incidence Twice, Month 6-12): 0%
- Vertigo, % >60 m (incidence Twice, Month 6-12): 0%
- Blood pressure increased: time to onset 31-60 minutes [1]: 10 (90.9%) and 10 (100%) and 20 (95.2%)
- Sedation: time to onset 31-60 minutes [1]: 2 (22.2%) and 2 (20.0%) and 4 (21.1%)
- Sedation: time to onset >90 minutes [1]: 1 (11.1%) and 1 (10.0%) and 2 (10.5%)
- Vertigo: time to onset 61-90 minutes [1]: 1 (3.3%) and 1 (6.7%) and 2 (4.4%)
- Dizziness: time to onset 31-60 minutes [2]: 4 (12.1%) and 4 (17.4%) and 8 (14.3%)
- Dizziness: time to onset 61-90 minutes [2]: 1 (3.0%) and 1 (4.3%) and 2 (3.6%)
- Vertigo: time to onset >90 minutes [2]: 1 (9.1%) and 1 (5.6%) and 2 (6.9%)
- Dissociation: time to onset 61-90 minutes [3]: 2 (5.6%) and 2 (7.1%) and 4 (6.3%)
- Dizziness: time to onset >90 minutes [3]: 1 (2.8%) and 1 (2.5%) and 2 (2.6%)
- Sedation(clinician-reported), n (%) (Month 3-6 Maintenance, AE week 1 None, onset 31-60 minutes): 1 (20.0%) and 1 (8.3%) and 2 (11.8%)
- Vertigo(clinician-reported), n (%) (Month 3-6 Maintenance, AE week 1 None, onset 61-90 minutes): 1 (10.0%) and 1 (12.5%) and 2 (11.1%)
- Dissociation(clinician-reported), n (%) [4]: 1 (5.9%) and 1 (5.3%) and 2 (5.6%)
- Sedation(clinician-reported), n (%) [4]: 1 (20.0%) and 1 (8.3%) and 2 (11.8%)
- Blood pressure increased (clinician-reported), n (%) (Month 3-6 Maintenance, AE week 1 Once): 2 (2.0%) and 2 (1.9%) and 4 (2.0%)
- Blood pressure increased (clinician-reported), n (%) (Month 3-6 Maintenance, AE week 1 Once, onset 31-60 minutes): 2 (100%) and 4 (100%)
- Blood pressure increased (clinician-reported), n (%) (Month 3-6 Maintenance, AE week 1 Twice): 2 (2.0%) and 2 (1.9%) and 4 (2.0%)
- Vertigo(clinician-reported), n (%) (Month 3-6 Maintenance, AE week 1 Twice, onset 0-30 minutes): 11 (91.7%) and 11 (84.6%) and 22 (88.0%)
- Dissociation(clinician-reported), n (%) [5]: 5 (27.8%) and 5 (25.0%) and 10 (26.3%)
- Sedation(clinician-reported), n (%) [5]: 1 (20.0%) and 1 (11.1%) and 2 (14.3%)
- Vertigo(clinician-reported), n (%) (Month 3-6 Maintenance, AE week 4 None, onset 61-90 minutes): 1 (8.3%) and 1 (10.0%) and 2 (9.1%)
- Dissociation(clinician-reported), n (%) [6]: 1 (5.6%) and 1 (5.0%) and 2 (5.3%)
- Dizziness(clinician-reported), n (%) [6]: 2 (6.9%) and 2 (11.1%) and 4 (8.5%)
- Vertigo(clinician-reported), n (%) (Month 3-6 Maintenance, AE week 4 Once): 3 (3.0%) and 3 (2.9%) and 6 (3.0%)
- Vertigo(clinician-reported), n (%) (Month 3-6 Maintenance, AE week 4 Once, onset 0-30 minutes): 3 (100%) and 6 (100%)
- Dizziness(clinician-reported), n (%) (Month 3-6 Maintenance, AE week 4 Once, onset 31-60 minutes): 1 (14.3%) and 1 (16.7%) and 2 (15.4%)
- Vertigo(clinician-reported), n (%) (Month 3-6 Maintenance, AE week 4 Twice, onset 61-90 minutes): 1 (12.5%) and 1 (7.7%) and 2 (9.5%)
- Sedation(clinician-reported), n (%) (Month 6-12 Maintenance, AE week 1 None): 5 (7.5%) and 5 (8.3%) and 10 (7.9%)
- Sedation(clinician-reported), n (%) (Month 6-12 Maintenance, AE week 1 None, onset missing): 1 (20.0%) and 2 (20.0%)
- Dizziness(clinician-reported), n (%) (Month 6-12 Maintenance, AE week 1 Twice): 7 (10.4%) and 7 (11.7%) and 14 (11.0%)
- Vertigo(clinician-reported), n (%) (Month 6-12 Maintenance, AE week 1 Twice, onset 31-60 minutes): 1 (10.0%) and 1 (16.7%) and 2 (12.5%)
- Sedation(clinician-reported), n (%) (Month 6-12 Maintenance, AE week 4 None): 4 (6.0%) and 4 (6.7%) and 8 (6.3%)
- Vertigo(clinician-reported), n (%) (Month 6-12 Maintenance, AE week 4 None, onset 31-60 minutes): 1 (14.3%) and 1 (25.0%) and 2 (18.2%)
- Sedation(clinician-reported), n (%) (Month 6-12 Maintenance, AE week 4 None, onset missing): 1 (25.0%) and 2 (25.0%)
- Sedation(clinician-reported), n (%) [7]: 2 (3.0%) and 2 (3.3%) and 4 (3.1%)
- Vertigo(clinician-reported), n (%) [7]: 2 (3.0%) and 2 (3.3%) and 4 (3.1%)
- Vertigo(clinician-reported), n (%) (Month 6-12 Maintenance, AE week 4 Once, onset 0-30 minutes): 1 (50.0%) and 2 (50.0%)
- Dissociation(clinician-reported), n (%) (Month 6-12 Maintenance, AE week 4 Once, onset 31-60 minutes): 1 (100%) and 1 (12.5%) and 2 (22.2%)
- Blood pressure increased (clinician-reported), n (%) (Month 6-12 Maintenance, AE week 4 Twice): 1 (1.5%) and 1 (1.7%) and 2 (1.6%)
- Blood pressure increased (clinician-reported), n (%) [8]: 1 (100%) and 2 (100%)
- Vertigo(clinician-reported), n (%) [8]: 1 (11.1%) and 1 (16.7%) and 2 (13.3%)
- Dizziness: time to onset >90 minutes [9]: 1 (5.6%) and 1 (6.7%) and 2 (6.1%)
- Sedation: patients with AE [9]: 2 (1.5%) and 2 (1.2%) and 4 (1.3%)
- Vertigo: time to onset 31-60 minutes [9]: 1 (12.5%) and 1 (9.1%) and 2 (10.5%)
- Vertigo: time to onset >90 minutes [9]: 1 (12.5%) and 1 (9.1%) and 2 (10.5%)
- Blood pressure increased: patients with AE [10]: 9 (6.8%) and 9 (5.4%) and 18 (6.0%)
- Dissociation: patients with AE [10]: 23 (17.4%) and 23 (13.8%) and 46 (15.4%)
- Sedation: patients with AE [10]: 5 (3.8%) and 5 (3.0%) and 10 (3.3%)
- Vertigo: time to onset 61-90 minutes [10]: 1 (10.0%) and 1 (6.7%) and 2 (8.0%)
- Dizziness: time to onset 31-60 minutes (Optimization Phase, AE week 4 Once): 1 (9.1%) and 1 (6.3%) and 2 (7.4%)
- Dizziness: time to onset 31-60 minutes (Optimization Phase, AE week 4 Twice): 1 (3.7%) and 1 (3.8%) and 2 (3.8%)
- time at which adverse events (particularly dissociation, increase in blood pressure) generally peak (human, in vivo, other: intranasal): ~40 min
